Data taken from patent US20150105252A1, “SUBSTITUTED PYRAZOLES AS HERBICIDES” (E I DU PONT DE NEMOURS AND COMPANY, priority 2013, published 2015).

Experiments:
[1] = test system: crabgrass, large; assay: Test A postemergence; type: in vivo, Digitaria sanguinalis
In short: (§1)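 Visual injury ratings, 0 = no effect to 100 = complete control, taken about 10 days after treatment against untreated controls. Test chemicals, in a non-phytotoxic surfactant-containing solvent, were sprayed onto soil preemergence or onto one- to two-leaf plants (2–10 cm) postemergence, in loam–sand soil under greenhouse conditions.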

[2] = test system: pigweed; assay: Test A postemergence; type: in vivo, Amaranthus retroflexus
In short: as §1

[3] = test system: nutsedge, yellow; assay: Test C preemergence; type: in vivo, Cyperus esculentus; conditions: preemergence; for Plant response rating, Nutsedge, Yellow: 125 g ai/ha, scale 0 to 100, 0 = no effect, 100 = complete control
In short: (§2)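 Greenhouse pot test: preemergence application onto freshly seeded loam/sand mix, postemergence application onto seedlings (1–4 leaves, 2–18 cm) in peat-vermiculite substrate. Responses scored visually 13 to 15 days later relative to controls, where 0 means no effect and 100 means complete control; a dash indicates no result.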

[4] = test system: velvetleaf; assay: Test C preemergence; type: in vivo, Abutilon theophrasti; conditions: preemergence; for Plant response rating, Velvetleaf: 125 g ai/ha, scale 0 to 100, 0 = no effect, 100 = complete control
In short: as §2

[5] = test system: wheat; assay: Test C postemergence; type: in vivo, Triticum aestivum; conditions: for Plant response rating, Wheat / Wheat plant response rating: postemergence; for Plant response rating, Wheat: 250 g ai/ha, scale 0 to 100 (0 no effect, 100 complete control); for Wheat plant response rating: scale 0 to 100
In short: as §2

[6] = test system: barnyardgrass; assay: Test A postemergence; type: in vivo, Echinochloa crus-galli
In short: as §1

[7] = test system: velvetleaf; assay: Test A preemergence; type: in vivo, Abutilon theophrasti; conditions: preemergence; for Velvetleaf plant response rating (0 to 100 scale): 125 g ai/ha, visual injury approx. 10 days after treatment; for Velvetleaf plant response rating: 500 g ai/ha, visual injury after approx. 10 days, 0 to 100 scale (0 no effect, 100 complete control)
In short: as §1

[8] = test system: soybean; assay: Test C preemergence; type: in vivo, Glycine max; conditions: preemergence; for Plant response rating, Soybean: 125 g ai/ha, scale 0 to 100, 0 = no effect, 100 = complete control
In short: as §2

[9] = test system: barnyardgrass; assay: Test A preemergence; type: in vivo, Echinochloa crus-galli; conditions: preemergence; for Barnyardgrass plant response rating (0 to 100 scale, 0 is no effect, 100 is complete control): visual injury approx. 10 days after treatment
In short: as §1

[10] = test system: soybean; assay: Test C postemergence; type: in vivo, Glycine max; conditions: for Plant response rating, Soybean / Soybean plant response rating: postemergence; for Plant response rating, Soybean: 250 g ai/ha, scale 0 to 100 (0 no effect, 100 complete control); for Soybean plant response rating: 125 g ai/ha, scale 0 to 100, 0 no effect, 100 complete control
In short: as §2

[11] = test system: corn; assay: Test C postemergence; type: in vivo, Zea mays; conditions: for Plant response rating (scale of 0 to 100 where 0 is no effect and 100 is complete control), Corn: Postemergence, 31 g ai/ha, visually evaluated after 13 to 15 days; for Corn plant response rating / Plant response rating, Corn: postemergence; for Corn plant response rating: 62 g ai/ha, scale 0 to 100
In short: as §2

[12] = test system: crabgrass, large; assay: Test A preemergence; type: in vivo, Digitaria sanguinalis; conditions: preemergence; for Crabgrass, Large plant response rating (0 to 100 scale): 125 g ai/ha, visual injury approx. 10 days after treatment; for Crabgrass, Large plant response rating: 500 g ai/ha, visual injury after approx. 10 days, 0 to 100 scale (0 no effect, 100 complete control)
In short: as §1

[13] = test system: oilseed rape; assay: Test C preemergence; type: in vivo, Brassica napus; conditions: preemergence; for Plant response rating, Oilseed Rape: 125 g ai/ha, scale 0 to 100, 0 = no effect, 100 = complete control
In short: as §2

[14] = test system: velvetleaf; assay: Test C postemergence; type: in vivo, Abutilon theophrasti; conditions: for Plant response rating, Velvetleaf / Velvetleaf plant response rating: postemergence; for Plant response rating, Velvetleaf: 250 g ai/ha, scale 0 to 100 (0 no effect, 100 complete control); for Velvetleaf plant response rating: scale 0 to 100
In short: as §2

[15] = test system: barnyardgrass; assay: Test C postemergence; type: in vivo, Echinochloa crus-galli; conditions: for Plant response rating (scale of 0 to 100 where 0 is no effect and 100 is complete control), Barnyardgrass: Postemergence, 31 g ai/ha, visually evaluated after 13 to 15 days; for Barnyardgrass plant response rating / Plant response rating, Barnyardgrass: postemergence; for Barnyardgrass plant response rating: 62 g ai/ha, scale 0 to 100
In short: as §2

[16] = test system: oilseed rape; assay: Test C postemergence; type: in vivo, Brassica napus; conditions: for Oilseed Rape plant response rating / Plant response rating, Oilseed Rape: postemergence; for Oilseed Rape plant response rating: 62 g ai/ha, scale 0 to 100
In short: as §2

[17] = Postemergence, 500 g ai/ha, 0 to 100 scale (0 no effect, 100 complete control)
[18] = postemergence, 125 g ai/ha, about 10 days, visual rating on 0 to 100 scale (0 no effect, 100 complete control)
[19] = 31 g ai/ha, visual rating, scale 0 to 100 (0 no effect, 100 complete control), 13 to 15 days
[20] = 62 g ai/ha, scale 0 to 100 (0 no effect, 100 complete control), 13 to 15 days
[21] = 250 g ai/ha, scale 0 to 100, 0 is no effect, 100 is complete control
[22] = 500 g ai/ha, visual injury after approx. 10 days, 0 to 100 scale (0 no effect, 100 complete control)
[23] = 250 g ai/ha, scale 0 to 100 (0 no effect, 100 complete control)
[24] = 125 g ai/ha, scale 0 to 100, 0 no effect, 100 complete control
[25] = Postemergence, 31 g ai/ha, visually evaluated after 13 to 15 days

CCCNC(=O)c1cc(CCF)n(Cc2ccnc(C(F)(F)F)c2)n1 [Compound 177]
Crabgrass, Large plant response rating [1, 17]: 100 | Crabgrass, Large plant response rating [1, 18]: 100 | Pigweed plant response rating [2, 17]: 100 | Pigweed plant response rating [2, 18]: 100 | Nutsedge, Yellow plant response rating [3, 19]: 5 | Nutsedge, Yellow plant response rating [3, 20]: 60 | Plant response rating, Nutsedge, Yellow ([3]; 13 to 15 days): 80 | Nutsedge, Yellow plant response rating [3, 21]: 95 | Velvetleaf plant response rating [4, 19]: 0 | Velvetleaf plant response rating [4, 20]: 35 | Plant response rating, Velvetleaf ([4]; 13 to 15 days): 50 | Velvetleaf plant response rating [4, 21]: 100 | Plant response rating, Wheat [5]: 20 | Wheat plant response rating [5]: 15 | Barnyardgrass plant response rating [6, 17]: 100 | Barnyardgrass plant response rating [6, 18]: 100 | Velvetleaf plant response rating (0 to 100 scale) [7]: 40 | Velvetleaf plant response rating [7]: 100 | Soybean plant response rating [8, 19]: 40 | Soybean plant response rating [8, 20]: 70 | Plant response rating, Soybean ([8]; 13 to 15 days): 95 | Soybean plant response rating [8, 21]: 98 | Barnyardgrass plant response rating (0 to 100 scale, 0 is no effect, 100 is complete control) ([9]; 125 g ai/ha): 100 | Barnyardgrass plant response rating [9, 22]: 100 | Plant response rating, Soybean [10]: 95 | Soybean plant response rating [10]: 90 | Plant response rating (scale of 0 to 100 where 0 is no effect and 100 is complete control), Corn [11]: 5 | Corn plant response rating [11]: 20 | Plant response rating, Corn [11, 23]: 15 | Plant response rating, Corn [11, 24]: 15 | Crabgrass, Large plant response rating (0 to 100 scale) [12]: 100 | Crabgrass, Large plant response rating [12]: 100 | Oilseed Rape plant response rating [13, 19]: 70 | Oilseed Rape plant response rating [13, 20]: 60 | Plant response rating, Oilseed Rape ([13]; 13 to 15 days): 90 | Oilseed Rape plant response rating [13, 21]: 95 | Plant response rating, Velvetleaf [14]: 60 | Velvetleaf plant response rating [14]: 45 | Plant response rating (scale of 0 to 100 where 0 is no effect and 100 is complete control), Barnyardgrass [15]: 5 | Barnyardgrass plant response rating [15]: 5 | Plant response rating, Barnyardgrass [15, 23]: 20 | Plant response rating, Barnyardgrass [15, 24]: 10 | Oilseed Rape plant response rating [16]: 50 | Plant response rating, Oilseed Rape [16, 23]: 70 | Plant response rating, Oilseed Rape [16, 24]: 60

CCCNC(=O)c1cc(OCC)n(Cc2ccnc(C(F)(F)F)c2)n1 [Compound 187]
Crabgrass, Large plant response rating [1, 17]: 90 | Crabgrass, Large plant response rating [1, 18]: 90 | Pigweed plant response rating ([2]; Postemergence, 125 g ai/ha, 0 to 100 scale, 0 no effect, 100 complete control): 100 | Pigweed plant response rating [2, 17]: 90 | Nutsedge, Yellow plant response rating [3, 19]: 25 | Nutsedge, Yellow plant response rating [3, 20]: 60 | Plant response rating, Nutsedge, Yellow ([3]; 13 to 15 days): 85 | Nutsedge, Yellow plant response rating [3, 21]: 98 | Velvetleaf plant response rating [4, 19]: 95 | Velvetleaf plant response rating [4, 20]: 100 | Plant response rating, Velvetleaf ([4]; 13 to 15 days): 100 | Velvetleaf plant response rating [4, 21]: 100 | Plant response rating, Wheat [5]: 15 | Wheat plant response rating [5]: 10 | Barnyardgrass plant response rating [6, 17]: 90 | Barnyardgrass plant response rating [6, 18]: 90 | Velvetleaf plant response rating (0 to 100 scale) [7]: 100 | Velvetleaf plant response rating [7]: 100 | Soybean plant response rating [8, 19]: 85 | Soybean plant response rating [8, 20]: 95 | Plant response rating, Soybean ([8]; 13 to 15 days): 98 | Soybean plant response rating [8, 21]: 98 | Barnyardgrass plant response rating (0 to 100 scale, 0 is no effect, 100 is complete control) ([9]; 125 g ai/ha): 90 | Barnyardgrass plant response rating [9, 22]: 100 | Plant response rating, Soybean [10]: 98 | Soybean plant response rating [10]: 95 | Plant response rating (scale of 0 to 100 where 0 is no effect and 100 is complete control), Corn [11]: 5 | Corn plant response rating [11]: 5 | Plant response rating, Corn [11, 23]: 65 | Plant response rating, Corn [11, 24]: 60 | Crabgrass, Large plant response rating (0 to 100 scale) [12]: 100 | Crabgrass, Large plant response rating [12]: 100 | Oilseed Rape plant response rating [13, 19]: 50 | Oilseed Rape plant response rating [13, 20]: 90 | Plant response rating, Oilseed Rape ([13]; 13 to 15 days): 95 | Oilseed Rape plant response rating [13, 21]: 100 | Plant response rating, Velvetleaf [14]: 65 | Velvetleaf plant response rating [14]: 55 | Plant response rating (scale of 0 to 100 where 0 is no effect and 100 is complete control), Barnyardgrass [15]: 5 | Barnyardgrass plant response rating [15]: 10 | Plant response rating, Barnyardgrass [15, 23]: 60 | Plant response rating, Barnyardgrass [15, 24]: 15 | Oilseed Rape plant response rating [16]: 50 | Plant response rating, Oilseed Rape [16, 23]: 80 | Plant response rating, Oilseed Rape [16, 24]: 75

O=C(NC1CC1)c1cc(CCCl)n(Cc2ccnc(C(F)(F)F)c2)n1 [Compound 144]
Crabgrass, Large plant response rating [1, 17]: 90 | Crabgrass, Large plant response rating [1, 18]: 90 | Pigweed plant response rating [2, 17]: 100 | Pigweed plant response rating [2, 18]: 100 | Nutsedge, Yellow plant response rating [3, 19]: 0 | Nutsedge, Yellow plant response rating [3, 20]: 45 | Plant response rating, Nutsedge, Yellow ([3]; 13 to 15 days): 65 | Nutsedge, Yellow plant response rating [3, 21]: 90 | Velvetleaf plant response rating [4, 19]: 15 | Velvetleaf plant response rating [4, 20]: 75 | Plant response rating, Velvetleaf ([4]; 13 to 15 days): 100 | Velvetleaf plant response rating [4, 21]: 100 | Plant response rating (scale of 0 to 100 where 0 is no effect and 100 is complete control), Wheat [5, 25]: 5 | Plant response rating, Wheat [5]: 10 | Wheat plant response rating [5]: 10 | Barnyardgrass plant response rating [6, 17]: 90 | Barnyardgrass plant response rating [6, 18]: 70 | Velvetleaf plant response rating (0 to 100 scale) [7]: 50 | Velvetleaf plant response rating [7]: 100 | Soybean plant response rating [8, 19]: 5 | Soybean plant response rating [8, 20]: 50 | Plant response rating, Soybean ([8]; 13 to 15 days): 80 | Soybean plant response rating [8, 21]: 98 | Barnyardgrass plant response rating ([9]; 125 g ai/ha, visual injury, 0 to 100 scale, approx. 10 days): 100 | Barnyardgrass plant response rating [9, 22]: 100 | Plant response rating (scale of 0 to 100 where 0 is no effect and 100 is complete control), Soybean [10, 25]: 35 | Plant response rating, Soybean [10]: 95 | Soybean plant response rating [10]: 75 | Plant response rating (scale of 0 to 100 where 0 is no effect and 100 is complete control), Corn [11]: 5 | Corn plant response rating [11]: 10 | Plant response rating, Corn [11, 23]: 25 | Plant response rating, Corn [11, 24]: 15 | Crabgrass, Large plant response rating (0 to 100 scale) [12]: 100 | Crabgrass, Large plant response rating [12]: 100 | Oilseed Rape plant response rating [13, 19]: 80 | Oilseed Rape plant response rating [13, 20]: 95 | Plant response rating, Oilseed Rape ([13]; 13 to 15 days): 100 | Oilseed Rape plant response rating [13, 21]: 100 | Plant response rating (scale of 0 to 100 where 0 is no effect and 100 is complete control), Velvetleaf [14, 25]: 15 | Plant response rating, Velvetleaf [14]: 50 | Velvetleaf plant response rating [14]: 35 | Plant response rating (scale of 0 to 100 where 0 is no effect and 100 is complete control), Barnyardgrass [15]: 10 | Barnyardgrass plant response rating [15]: 15 | Plant response rating, Barnyardgrass [15, 23]: 15 | Plant response rating, Barnyardgrass [15, 24]: 10 | Plant response rating (scale of 0 to 100 where 0 is no effect and 100 is complete control), Oilseed Rape [16, 25]: 50 | Oilseed Rape plant response rating [16]: 50 | Plant response rating, Oilseed Rape [16, 23]: 65 | Plant response rating, Oilseed Rape [16, 24]: 60
